According to PubChem BioAssay (NCI):
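At the GI50, growth is halved. TGI is the concentration that stops growth completely.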

How the values were obtained:
Experiment in all cases: NCI tumour cell line growth inhibition, 384-well format
HCC-2998 colon = test system: HCC-2998 colon
HT29 colon = test system: HT29 colon
UACC-257 melanoma = test system: UACC-257 melanoma
A498 renal = test system: A498 renal
MDA-MB-435 melanoma = test system: MDA-MB-435 melanoma
CCRF-CEM leukemia = test system: CCRF-CEM leukemia
MDA-MB-231 breast = test system: MDA-MB-231 breast
HL-60(TB) leukemia = test system: HL-60(TB) leukemia
NCI-H226 lung = test system: NCI-H226 lung
EKVX NSCLC = test system: EKVX NSCLC
SW-620 colon = test system: SW-620 colon
CAKI-1 renal = test system: CAKI-1 renal
NCI-H460 NSCLC = test system: NCI-H460 NSCLC

## NC(=O)c1nc(-c2c(F)cccc2Cl)oc1Nc1ccc(C(=O)N2CCOCC2)cc1
HCC-2998 colon
  GI50: 6720 nM
  TGI: 21900 nM
HT29 colon
  GI50: 2480 nM
  TGI: 25000 nM
UACC-257 melanoma
  GI50: 23100 nM
  TGI: > 54800 nM
A498 renal
  GI50: 1860 nM
  TGI: 16100 nM
MDA-MB-435 melanoma
  GI50: 11800 nM
  TGI: > 51000 nM
CCRF-CEM leukemia
  GI50: 211 nM
  TGI: 383 nM
MDA-MB-231 breast
  GI50: 1340 nM
  TGI: 5940 nM
HL-60(TB) leukemia
  GI50: 360 nM
  TGI: 1090 nM
NCI-H226 lung
  GI50: 474 nM
  TGI: 2670 nM
EKVX NSCLC
  GI50: 1960 nM
  TGI: 7570 nM
SW-620 colon
  GI50: 480 nM
  TGI: 3370 nM
CAKI-1 renal
  GI50: 1760 nM
  TGI: 5850 nM
NCI-H460 NSCLC
  GI50: 395 nM
  TGI: 10600 nM
